Data: patent US20110028513A1, “METHOD FOR TREATING NEUROLOGICAL DISORDERS WITH IMIDAZOLIUM AND IMIDAZOLINIUM COMPOUNDS” (priority 2008, published 2011)
“Also recorded” adds a separate entry of the source.

How the values were obtained:
transgenic GFAP-GFP mice [1] = assay: In vivo retinal imaging (scanning laser ophthalmoscope) of GFP fluorescence in the optic disc of 2′-CH3-MPTP-treated mice
Experimental: (§1) The generation and genotyping of the transgenic GFAP (glial fibrillary acidic protein)-GFP (green fluorescent protein) mice were performed as previously described (Zhuo et al., 1997, See PCT Application No. PCT/SG2008/000159). Adult mice (8-10 weeks old) in the Friend virus B-Type (FVB/N) background were used in this study. Animal husbandry was provided by the Biological Resource Center (BRC) of Biopolis, Singapore. The experimental protocol for this study was approved by the Institutional Animal Care and Use Committee at BRC.
The synthesis of DBZIM has been described. (See PCT Application No. SG2009/000037, Zhang et al., 2007). The structure of DBZIM is illustrated in FIG. 1. […] The dosing regime is illustrated in FIG. 2. Mice in the DBZIM/neurotoxicant-treated group received an intraperitoneal (ip) injection of DBZIM (25 mg/kg in saline) 24 h before and after administering 4 ip injections of 2′-CH3-MPTP (15 mg/kg in saline; once every 2 h). Mice in the neurotoxicant-treated group were injected with 2′-CH3-MPTP only (4×15 mg/kg in saline; ip; once every 2 h). For each mouse in the DBZIM/neurotoxicant-treated group (n=5) and neurotoxicant-treated group (n=5), saline was used as a vehicle for the control group (n=6). Retinal imaging was performed before and after treatment.
Mice were anesthetized by ip injections with 0.15 ml/10 g body weight of Avertin (1.5% 2,2,2-tribromoethanol; T48402) purchased from Sigma-Aldrich (St. Louis, Mo., USA). Their pupils were dilated with a drop of 0.5% Cyclogyl® sterile ophthalmic solution (cyclopentolate hydrochloride, Alcon®, Puurs, Belgium). Custom-made polymethylmethacrylate (PMMA) hard contact lenses (Cantor & Nissel, Northamptonshire, UK) were used to avoid dehydration of the cornea. Careful examination by an eye specialist before scanning laser ophthalmoscope (SLO) imaging ruled out the presence of any corneal or lens opacity.
The second version of Heidelberg Retina Angiograph (HRA II) SLO (Heidelberg Engineering, Dossenheim, Germany) was modified for use on mice. SLO is an imaging technique based on the scanning of the fundus with a laser beam from a point source; the reflected light is detected by a photomultiplier. The incident and reflected light beams follow a co-axial path. Therefore, more light can pass through small eyes with SLO than with conventional fundus cameras. […]
Unlike magnetic resonance images (MRI) and in vitro fluorescent-labeled cell images, the in vivo fluorescence images of transgenic GFAP-GFP expression in the mouse retina have very low signal-to-noise ratio (SNR), which makes the quantitative analysis of the transgene expression difficult. […]

transgenic GFAP-GFP mice [2] = assay: Brain cryosection immunohistochemistry (GFP/TH) of striatum and SNpc after 2′-CH3-MPTP; format: in vivo; settings: DBZIM 25 mg/kg ip plus 2′-CH3-MPTP
Experimental: as §1
(§2) The synthesis of DBZIM has been described. (See PCT Application No. SG2009/000037, Zhang et al., 2007). The structure of DBZIM is illustrated in FIG. 1. […] The dosing regime is illustrated in FIG. 2. Mice in the DBZIM/neurotoxicant-treated group received an intraperitoneal (ip) injection of DBZIM (25 mg/kg in saline) 24 h before and after administering 4 ip injections of 2′-CH3-MPTP (15 mg/kg in saline; once every 2 h). […]
(§3) After perfusion with 1× PBS, followed by 4% fresh paraformaldehyde (in 1× PBS, pH 7.4), the mouse brains were harvested and the eyes enucleated. […] The retinas, free of the choroid and sclera tissues, were whole-mounted on a glass slide with Vectorshield mounting medium for fluorescence (Vector Laboratories, Inc., Burlingame, Calif., USA; H1000). […]

transgenic GFAP-GFP mice [3] = assay: Retinal whole-mount and cross-section immunohistochemistry (GFP/GFAP) for 2′-CH3-MPTP-induced gliosis; format: in vivo; settings: DBZIM 25 mg/kg ip plus 2′-CH3-MPTP
Experimental: as §1, §2, §3

SMILES	fluorescence intensity (FI) in the optic disc over saline control, in words (transgenic GFAP-GFP mice [1]; 2′-CH3-MPTP alone, 4 x 15 mg/kg ip, P<0.05, FIG. 4)	increase in GFP fluorescence of the optic disc (transgenic GFAP-GFP mice [1]; neurotoxicant alone, 4 x 15 mg/kg ip once every 2 h, versus saline control, FIG. 4) [%]	change in GFP fluorescence (fluorescence intensity) of the optic disc versus saline control (transgenic GFAP-GFP mice [1]; DBZIM 25 mg/kg ip 24 h before and after 4 x 15 mg/kg ip 2′-CH3-MPTP, quantified by algorithm, FIG. 4, day 4)	apparent retinal neurotoxicity in composite retinal images (transgenic GFAP-GFP mice [1]; DBZIM 25 mg/kg ip plus 2′-CH3-MPTP, FIG. 3)	DA neuron depletion in the SNpc (TH immunoreactivity) (transgenic GFAP-GFP mice [2]; SNpc, FIG. 8)	striatal gliosis (GFP signal) (transgenic GFAP-GFP mice [2]; striatum, FIG. 7)	gliosis in retinal whole-mounts (GFP green and GFAP red fluorescence, nerve fiber layer) (transgenic GFAP-GFP mice [3]; FIG. 5)	gliosis in retinal astrocytes and Müller cells (retinal cross-sections) (transgenic GFAP-GFP mice [3]; FIG. 6)
Cc1ccccc1C1=CCN(C)CC1 [2′-CH3-MPTP, methyl-4(2′-methylphenyl)-1,2,3,6-tetrahydropyridine, reference compound]	significant increase	36						
[Br-].c1ccc(Cn2cc[n+](Cc3ccccc3)c2)cc1 [DBZIM, 1,3-bisbenzylimidazolium bromide]			no significant change; also recorded: prevented the 2′-CH3-MPTP-induced retinal toxicity	no apparent neurotoxicity	A significant portion of the DA neurons is protected	cut down the gliosis in the striatum to a basal level; also recorded: significantly attenuates the neurotoxicity	attenuated both green and red fluorescence to the basal levels; also recorded: significantly attenuates the gliosis	reduced the neurotoxicant-induced gliosis to close to the basal level; also recorded: significantly attenuated
